Active and inactive are the calls of the source. How the calls were made is not given here.
Test system: CCRIS mutagenicity, Ames/micronucleus/aberration tests
Assay: CCRIS mutagenicity studies

Measured: mutagenic call

ClC(Cl)(Cl)Cl
active: End Point: IN VIVO MICRONUCLEUS, Test System: BONE MARROW POLYCHROMATIC ERYTHROCYTES, Species: MOUSE, Strain/Sex: MALE, Route: IP INJECTION active; positive | Test System: AMES SALMONELLA TYPHIMURIUM, Strain/Indicator: TA98, Metabolic Activation: NONE, Method: GAS EXPOSURE active; positive | Test System: AMES SALMONELLA TYPHIMURIUM, Strain/Indicator: TA1535, Metabolic Activation: RAT, LIVER, S-9, AROCLOR 1254, Method: STANDARD PLATE active; positive | Test System: AMES SALMONELLA TYPHIMURIUM, Strain/Indicator: TA1537, Metabolic Activation: NONE, Method: STANDARD PLATE active; positive | Test System: Ames Salmonella typhimurium, Strain/Indicator: TA98, Metabolic Activation: None, Method: Gas exposure method active; positive | Test System: E. COLI, Strain/Indicator: WP2UVRA/PKM101, Metabolic Activation: NONE, Method: GAS EXPOSURE active; positive | Test System: E. COLI, Strain/Indicator: WP2UVRA/PKM101, Metabolic Activation: RAT LIVER S-9, PHENOBARBITOL AND 5,6-BENZOFLAVONE, GLUTATHIONE-SUPPLEMENTED, Method: GAS EXPOSURE active; positive | Test System: E. COLI, Strain/Indicator: WP2UVRA/PKM101, Metabolic Activation: RAT LIVER S-9, PHENOBARBITOL AND 5,6-BENZOFLAVONE, Method: GAS EXPOSURE active; positive
inactive: End Point: IN VITRO CHROMOSOMAL ABERRATIONS, Test System: CHO-LB CELLS, Metabolic Activation: NONE inactive; negative | End Point: IN VITRO CHROMOSOMAL ABERRATIONS, Test System: CHO-LB CELLS, Metabolic Activation: RAT, LIVER, S-9, AROCLOR 1254 inactive; negative | End Point: In vitro chromosomal aberrations, Test System: Chinese hamster lung (CHL/IU) cells, Metabolic Activation: Rat, Liver, S9, Phenobarbital and 5,6-benzoflavone inactive; negative | Test System: AMES SALMONELLA TYPHIMURIUM, Strain/Indicator: TA97, Metabolic Activation: HAMSTER, LIVER, S-9, AROCLOR 1254 (10%), Method: PREINCUBATION inactive; negative | Test System: AMES SALMONELLA TYPHIMURIUM, Strain/Indicator: TA97, Metabolic Activation: HAMSTER, LIVER, S-9, AROCLOR 1254 (30%), Method: PREINCUBATION inactive; negative | Test System: AMES SALMONELLA TYPHIMURIUM, Strain/Indicator: TA97, Metabolic Activation: NONE, Method: PREINCUBATION inactive; negative | Test System: AMES SALMONELLA TYPHIMURIUM, Strain/Indicator: TA97, Metabolic Activation: NONE, Method: STANDARD PLATE inactive; negative | Test System: AMES SALMONELLA TYPHIMURIUM, Strain/Indicator: TA97, Metabolic Activation: RAT, LIVER, S-9, AROCLOR 1254 (10%), Method: PREINCUBATION inactive; negative | Test System: AMES SALMONELLA TYPHIMURIUM, Strain/Indicator: TA97, Metabolic Activation: RAT, LIVER, S-9, AROCLOR 1254 (30%), Method: PREINCUBATION inactive; negative | Test System: AMES SALMONELLA TYPHIMURIUM, Strain/Indicator: TA97, Metabolic Activation: RAT, LIVER, S-9, AROCLOR 1254, Method: STANDARD PLATE inactive; negative | Test System: AMES SALMONELLA TYPHIMURIUM, Strain/Indicator: TA98, Metabolic Activation: HAMSTER, LIVER, S-9, AROCLOR 1254 (10%), Method: PREINCUBATION inactive; negative | Test System: AMES SALMONELLA TYPHIMURIUM, Strain/Indicator: TA98, Metabolic Activation: HAMSTER, LIVER, S-9, AROCLOR 1254 (30%), Method: PREINCUBATION inactive; negative | Test System: AMES SALMONELLA TYPHIMURIUM, Strain/Indicator: TA98, Metabolic Activation: NONE, Method: PREINCUBATION inactive; negative | Test System: AMES SALMONELLA TYPHIMURIUM, Strain/Indicator: TA98, Metabolic Activation: RAT LIVER S-9, PHENOBARBITOL AND 5,6-BENZOFLAVONE, Method: GAS EXPOSURE inactive; negative | Test System: AMES SALMONELLA TYPHIMURIUM, Strain/Indicator: TA98, Metabolic Activation: RAT, LIVER, S-9, AROCLOR 1254 (10%), Method: PREINCUBATION inactive; negative | Test System: AMES SALMONELLA TYPHIMURIUM, Strain/Indicator: TA98, Metabolic Activation: RAT, LIVER, S-9, AROCLOR 1254 (30%), Method: PREINCUBATION inactive; negative | Test System: AMES SALMONELLA TYPHIMURIUM, Strain/Indicator: TA98, Metabolic Activation: RAT, LIVER, S-9, AROCLOR 1254, Method: STANDARD PLATE inactive; negative | Test System: AMES SALMONELLA TYPHIMURIUM, Strain/Indicator: TA100, Metabolic Activation: HAMSTER, LIVER, S-9, AROCLOR 1254 (10%), Method: PREINCUBATION inactive; negative | Test System: AMES SALMONELLA TYPHIMURIUM, Strain/Indicator: TA100, Metabolic Activation: HAMSTER, LIVER, S-9, AROCLOR 1254 (30%), Method: PREINCUBATION inactive; negative | Test System: AMES SALMONELLA TYPHIMURIUM, Strain/Indicator: TA100, Metabolic Activation: NONE, Method: PREINCUBATION inactive; negative | Test System: AMES SALMONELLA TYPHIMURIUM, Strain/Indicator: TA100, Metabolic Activation: RAT, LIVER, S-9, AROCLOR 1254 (10%), Method: PREINCUBATION inactive; negative | Test System: AMES SALMONELLA TYPHIMURIUM, Strain/Indicator: TA100, Metabolic Activation: RAT, LIVER, S-9, AROCLOR 1254 (30%), Method: PREINCUBATION inactive; negative | Test System: AMES SALMONELLA TYPHIMURIUM, Strain/Indicator: TA1535, Metabolic Activation: HAMSTER, LIVER, S-9, AROCLOR 1254 (10%), Method: PREINCUBATION inactive; negative | Test System: AMES SALMONELLA TYPHIMURIUM, Strain/Indicator: TA1535, Metabolic Activation: HAMSTER, LIVER, S-9, AROCLOR 1254 (30%), Method: PREINCUBATION inactive; negative | Test System: AMES SALMONELLA TYPHIMURIUM, Strain/Indicator: TA1535, Metabolic Activation: NONE, Method: PREINCUBATION inactive; negative | Test System: AMES SALMONELLA TYPHIMURIUM, Strain/Indicator: TA1535, Metabolic Activation: NONE, Method: STANDARD PLATE inactive; negative | Test System: AMES SALMONELLA TYPHIMURIUM, Strain/Indicator: TA1535, Metabolic Activation: RAT, LIVER, S-9, AROCLOR 1254 (10%), Method: PREINCUBATION inactive; negative | Test System: AMES SALMONELLA TYPHIMURIUM, Strain/Indicator: TA1535, Metabolic Activation: RAT, LIVER, S-9, AROCLOR 1254 (30%), Method: PREINCUBATION inactive; negative | Test System: AMES SALMONELLA TYPHIMURIUM, Strain/Indicator: TA1537, Metabolic Activation: HAMSTER, LIVER, S-9, AROCLOR 1254 (10 OR 30%), Method: PREINCUBATION inactive; negative | Test System: AMES SALMONELLA TYPHIMURIUM, Strain/Indicator: TA1537, Metabolic Activation: NONE, Method: PREINCUBATION inactive; negative | Test System: AMES SALMONELLA TYPHIMURIUM, Strain/Indicator: TA1537, Metabolic Activation: RAT, LIVER, S-9, AROCLOR 1254 (10 OR 30%), Method: PREINCUBATION inactive; negative | Test System: Ames Salmonella typhimurium, Strain/Indicator: TA98, Metabolic Activation: Rat, Liver, S9, Sodium phenobarbital and 5,6-benzoflavone (10%), Method: Gas exposure method inactive; negative | Test System: Ames Salmonella typhimurium, Strain/Indicator: TA100, Metabolic Activation: None, Method: Gas exposure method inactive; negative | Test System: Ames Salmonella typhimurium, Strain/Indicator: TA100, Metabolic Activation: Rat, Liver, S9, Sodium phenobarbital and 5,6-benzoflavone (10%), Method: Gas exposure method inactive; negative | Test System: Ames Salmonella typhimurium, Strain/Indicator: TA1535, Metabolic Activation: None, Method: Gas exposure method inactive; negative | Test System: Ames Salmonella typhimurium, Strain/Indicator: TA1535, Metabolic Activation: Rat, Liver, S9, Sodium phenobarbital and 5,6-benzoflavone (10%), Method: Gas exposure method inactive; negative | Test System: Ames Salmonella typhimurium, Strain/Indicator: TA1537, Metabolic Activation: None, Method: Gas exposure method inactive; negative | Test System: Ames Salmonella typhimurium, Strain/Indicator: TA1537, Metabolic Activation: Rat, Liver, S9, Sodium phenobarbital and 5,6-benzoflavone (10%), Method: Gas exposure method inactive; negative | Test System: MOUSE LYMPHOMA, Strain/Indicator: L5178Y (TK+/TK-), Metabolic Activation: RAT, LIVER, S-9, AROCLOR 1254, Method: SUSPENSION/PLATE inactive; negative | Test System: UDS RAT HEPATOCYTES, Strain/Indicator: BROMODEOXYURIDINE INCORP, Metabolic Activation: NONE, Method: FLOW CYTOMETRIC ANALYSIS inactive; negative | Test System: UDS RAT HEPATOCYTES, Strain/Indicator: THY INCORP, Metabolic Activation: NONE, Method: AUTORADIOGRAPHY inactive; negative

— PubChem BioAssay AID1259407 (Chemical Carcinogenesis Research Information System (CCRIS), 2018)
